Measured values from patent US10472352B2, “Rac inhibitors” (Geneyus LLC, priority 2017, dated 2019).
Read-outs that look alike come from different tables or passages of the source.

System: BT474 breast cancer cells
Assay: BT474 Four (4) Day Cell Viability Assay
Format: cell-based
Conditions: BT474, 4 days; for viability at 2.5 µM / viability at 5 µM: Homo sapiens, BT-474, 96 h, read-out: cellular viability; for viability at 2.5 µM: 32661 2.5 μM; for viability at 5 µM: 32661 5 μM
Experimental: BT474 breast cancer cells that are Estrogen Receptor Positive and HER2+ were grown in 5% cFBS. 5,000 cells were seeded into each well of a 96-well plate and treated with escalating doses of lapatinib, fulvestrant, and 32661.

[1] = fulvestrant 0.0 nM, lapatinib 0.0 nM
[2] = fulvestrant 0.0 nM, lapatinib 6.9 nM
[3] = fulvestrant 0.0 nM, lapatinib 20.6 nM
[4] = fulvestrant 0.0 nM, lapatinib 61.7 nM
[5] = fulvestrant 0.0 nM, lapatinib 185.2 nM
[6] = fulvestrant 0.0 nM, lapatinib 555.6 nM
[7] = fulvestrant 0.0 nM, lapatinib 1666.7 nM
[8] = fulvestrant 0.0 nM, lapatinib 3333.0 nM
[9] = fulvestrant 6.9 nM, lapatinib 0.0 nM
[10] = fulvestrant 6.9 nM, lapatinib 6.9 nM
[11] = fulvestrant 6.9 nM, lapatinib 20.6 nM
[12] = fulvestrant 6.9 nM, lapatinib 61.7 nM
[13] = fulvestrant 6.9 nM, lapatinib 185.2 nM
[14] = fulvestrant 6.9 nM, lapatinib 555.6 nM
[15] = fulvestrant 6.9 nM, lapatinib 1666.7 nM
[16] = fulvestrant 6.9 nM, lapatinib 3333.0 nM
[17] = fulvestrant 20.6 nM, lapatinib 0.0 nM
[18] = fulvestrant 20.6 nM, lapatinib 6.9 nM
[19] = fulvestrant 20.6 nM, lapatinib 20.6 nM
[20] = fulvestrant 20.6 nM, lapatinib 61.7 nM
[21] = fulvestrant 20.6 nM, lapatinib 185.2 nM
[22] = fulvestrant 20.6 nM, lapatinib 555.6 nM
[23] = fulvestrant 20.6 nM, lapatinib 1666.7 nM
[24] = fulvestrant 20.6 nM, lapatinib 3333.0 nM
[25] = fulvestrant 61.7 nM, lapatinib 0.0 nM
[26] = fulvestrant 61.7 nM, lapatinib 6.9 nM
[27] = fulvestrant 61.7 nM, lapatinib 20.6 nM
[28] = fulvestrant 61.7 nM, lapatinib 61.7 nM
[29] = fulvestrant 61.7 nM, lapatinib 185.2 nM
[30] = fulvestrant 61.7 nM, lapatinib 555.6 nM
[31] = fulvestrant 61.7 nM, lapatinib 1666.7 nM
[32] = fulvestrant 61.7 nM, lapatinib 3333.0 nM
[33] = fulvestrant 185.2 nM, lapatinib 0.0 nM
[34] = fulvestrant 185.2 nM, lapatinib 6.9 nM
[35] = fulvestrant 185.2 nM, lapatinib 20.6 nM
[36] = fulvestrant 185.2 nM, lapatinib 61.7 nM
[37] = fulvestrant 185.2 nM, lapatinib 185.2 nM
[38] = fulvestrant 185.2 nM, lapatinib 555.6 nM
[39] = fulvestrant 185.2 nM, lapatinib 1666.7 nM
[40] = fulvestrant 185.2 nM, lapatinib 3333.0 nM
[41] = fulvestrant 555.6 nM, lapatinib 0.0 nM
[42] = fulvestrant 555.6 nM, lapatinib 6.9 nM
[43] = fulvestrant 555.6 nM, lapatinib 20.6 nM
[44] = fulvestrant 555.6 nM, lapatinib 61.7 nM
[45] = fulvestrant 555.6 nM, lapatinib 185.2 nM
[46] = fulvestrant 555.6 nM, lapatinib 555.6 nM
[47] = fulvestrant 555.6 nM, lapatinib 1666.7 nM
[48] = fulvestrant 555.6 nM, lapatinib 3333.0 nM
[49] = fulvestrant 1666.7 nM, lapatinib 0.0 nM
[50] = fulvestrant 1666.7 nM, lapatinib 6.9 nM
[51] = fulvestrant 1666.7 nM, lapatinib 20.6 nM
[52] = fulvestrant 1666.7 nM, lapatinib 61.7 nM
[53] = fulvestrant 1666.7 nM, lapatinib 185.2 nM
[54] = fulvestrant 1666.7 nM, lapatinib 555.6 nM
[55] = fulvestrant 1666.7 nM, lapatinib 1666.7 nM
[56] = fulvestrant 1666.7 nM, lapatinib 3333.0 nM
[57] = fulvestrant 3333.0 nM, lapatinib 0.0 nM
[58] = fulvestrant 3333.0 nM, lapatinib 6.9 nM
[59] = fulvestrant 3333.0 nM, lapatinib 20.6 nM
[60] = fulvestrant 3333.0 nM, lapatinib 61.7 nM
[61] = fulvestrant 3333.0 nM, lapatinib 185.2 nM
[62] = fulvestrant 3333.0 nM, lapatinib 555.6 nM
[63] = fulvestrant 3333.0 nM, lapatinib 1666.7 nM

SMILES: FC(F)(F)c1ccc2c(SCCCCCCn3cnc(CN4CCOCC4)c3)ccnc2c1 [Compound 0032661, 4-[[1-[6-[[7-(trifluoromethyl)-4-quinolyl]sulfanyl]hexyl]imidazol-4-yl]methyl]morpholine]
- cellular viability, addition of 32661 to lapatinib and fulvestrant: enhanced the reduction of cellular viability
- cellular viability, addition of 32661 to lapatinib and fulvestrant (listed as 32661): further enhanced the reduction of cellular viability
- viability at 2.5 µM [1]: 96%
- viability at 2.5 µM [2]: 85%
- viability at 2.5 µM [3]: 80%
- viability at 2.5 µM [4]: 81%
- viability at 2.5 µM [5]: 83%
- viability at 2.5 µM [6]: 73%
- viability at 2.5 µM [7]: 60%
- viability at 2.5 µM [8]: 23%
- viability at 2.5 µM [9]: 90%
- viability at 2.5 µM [10]: 83%
- viability at 2.5 µM [11]: 80%
- viability at 2.5 µM [12]: 80%
- viability at 2.5 µM [13]: 78%
- viability at 2.5 µM [14]: 66%
- viability at 2.5 µM [15]: 55%
- viability at 2.5 µM [16]: 25%
- viability at 2.5 µM [17]: 87%
- viability at 2.5 µM [18]: 77%
- viability at 2.5 µM [19]: 79%
- viability at 2.5 µM [20]: 79%
- viability at 2.5 µM [21]: 76%
- viability at 2.5 µM [22]: 63%
- viability at 2.5 µM [23]: 54%
- viability at 2.5 µM [24]: 25%
- viability at 2.5 µM [25]: 87%
- viability at 2.5 µM [26]: 78%
- viability at 2.5 µM [27]: 78%
- viability at 2.5 µM [28]: 78%
- viability at 2.5 µM [29]: 73%
- viability at 2.5 µM [30]: 63%
- viability at 2.5 µM [31]: 53%
- viability at 2.5 µM [32]: 21%
- viability at 2.5 µM [33]: 84%
- viability at 2.5 µM [34]: 81%
- viability at 2.5 µM [35]: 82%
- viability at 2.5 µM [36]: 77%
- viability at 2.5 µM [37]: 73%
- viability at 2.5 µM [38]: 63%
- viability at 2.5 µM [39]: 54%
- viability at 2.5 µM [40]: 18%
- viability at 2.5 µM [41]: 83%
- viability at 2.5 µM [42]: 78%
- viability at 2.5 µM [43]: 80%
- viability at 2.5 µM [44]: 79%
- viability at 2.5 µM [45]: 75%
- viability at 2.5 µM [46]: 62%
- viability at 2.5 µM [47]: 48%
- viability at 2.5 µM [48]: 14%
- viability at 2.5 µM [49]: 75%
- viability at 2.5 µM [50]: 72%
- viability at 2.5 µM [51]: 73%
- viability at 2.5 µM [52]: 72%
- viability at 2.5 µM [53]: 59%
- viability at 2.5 µM [54]: 47%
- viability at 2.5 µM [55]: 24%
- viability at 2.5 µM [56]: 7%
- viability at 2.5 µM [57]: 52%
- viability at 2.5 µM [58]: 42%
- viability at 2.5 µM [59]: 34%
- viability at 2.5 µM [60]: 30%
- viability at 2.5 µM [61]: 26%
- viability at 2.5 µM [62]: 22%
- viability at 2.5 µM [63]: 16%
- viability at 2.5 µM (fulvestrant 3333.0 nM, lapatinib 3333.0 nM): 1%
- viability at 5 µM [1]: 95%
- viability at 5 µM [2]: 87%
- viability at 5 µM [3]: 84%
- viability at 5 µM [4]: 87%
- viability at 5 µM [5]: 79%
- viability at 5 µM [6]: 67%
- viability at 5 µM [7]: 51%
- viability at 5 µM [8]: 16%
- viability at 5 µM [9]: 93%
- viability at 5 µM [10]: 83%
- viability at 5 µM [11]: 82%
- viability at 5 µM [12]: 82%
- viability at 5 µM [13]: 77%
- viability at 5 µM [14]: 65%
- viability at 5 µM [15]: 42%
- viability at 5 µM [16]: 14%
- viability at 5 µM [17]: 91%
- viability at 5 µM [18]: 80%
- viability at 5 µM [19]: 79%
- viability at 5 µM [20]: 78%
- viability at 5 µM [21]: 71%
- viability at 5 µM [22]: 60%
- viability at 5 µM [23]: 39%
- viability at 5 µM [24]: 11%
- viability at 5 µM [25]: 90%
- viability at 5 µM [26]: 80%
- viability at 5 µM [27]: 78%
- viability at 5 µM [28]: 76%
- viability at 5 µM [29]: 67%
- viability at 5 µM [30]: 60%
- viability at 5 µM [31]: 39%
- viability at 5 µM [32]: 11%
- viability at 5 µM [33]: 90%
- viability at 5 µM [34]: 78%
- viability at 5 µM [35]: 78%
- viability at 5 µM [36]: 76%
- viability at 5 µM [37]: 67%
- viability at 5 µM [38]: 56%
- viability at 5 µM [39]: 35%
- viability at 5 µM [40]: 10%
- viability at 5 µM [41]: 86%
- viability at 5 µM [42]: 79%
- viability at 5 µM [43]: 74%
- viability at 5 µM [44]: 72%
- viability at 5 µM [45]: 56%
- viability at 5 µM [46]: 48%
- viability at 5 µM [47]: 29%
- viability at 5 µM [48]: 6%
- viability at 5 µM [49]: 81%
- viability at 5 µM [50]: 60%
- viability at 5 µM [51]: 60%
- viability at 5 µM [52]: 48%
- viability at 5 µM [53]: 36%
- viability at 5 µM [54]: 29%
- viability at 5 µM [55]: 18%
- viability at 5 µM [56]: 1%
- viability at 5 µM [57]: 56%
- viability at 5 µM [58]: 35%
- viability at 5 µM [59]: 29%
- viability at 5 µM [60]: 21%
- viability at 5 µM [61]: 22%
- viability at 5 µM [62]: 19%
- viability at 5 µM [63]: 11%
